According to patent publication US20080039422A1, “Vitamin B12-Containing Compositions and Methods of Use” (Transition Therapeutics Inc., priority 2004, published 2008):

What was measured:
Type in all cases: physicochemical
[1] = Time course of CN-Cbl in solution (8 hours, 200 hours)
Experimental: To establish more precise time courses, ten samples were prepared containing various challenge amounts of CN-Cbl in solutions containing ethanol and propylene glycol. Five of the solutions contained 15% ethanol and 20% propylene glycol and five contained 20% ethanol and 40% propylene glycol. Within each set of five, they were challenged with: (1) 50 mg/ml CN-Cbl; (2) 75 mg/ml CN-Cbl; (3) 100 mg/ml CN-Cbl; (4) 150 mg/ml CN-Cbl; and (5) 200 mg/ml CN-Cbl. To generate the solutions, the methods described above were modified by heating the solutions for 30 consecutive minutes at 60° C., after which time there was no visible precipitate. Samples were also retained within the same tubes for the duration of the study, rather than transferring supernatant fractions to fresh tubes at each time point. The concentrations were recorded eleven times; seven times within the first eight hours following the initial combination and four times over the subsequent 192 hours. The concentrations were measured at 0.5 hours, 1.0 hour, 2.0 hours, 3.0 hours, 4.0 hours, 6.0 hours, 8.0 hours, 24.0 hours, 32.0 hours, 100 hours, and 200 hours. The concentration of CN-Cbl was measured and the percentage of CN-Cbl remaining in solution was calculated.

[2] = Stability of CN-Cbl solutions stored at room temperature (3 days, 2 weeks); conditions: for Conc of CN-Cbl: After 2 weeks at Room Temperature
Experimental: To determine the stability of the various solutions, the clarified stocks were aliquoted into fresh tubes and stored at room temperature, protected from light, for up to two weeks. Prior to measuring the concentrations of CN-Cbl on subsequent occasions, the tubes were centrifuged for ten minutes at rcf 16,100. The concentration of CN-Cbl was measured as described above by spectrophotometry.
In the experiments described above, the concentration of CN-Cbl was measured within an hour or two after the components of the solutions were initially combined. To determine the stability of the preparations, the concentrations of CN-Cbl were measured in individual excipients after three days and the concentrations of CN-Cbl in combined excipients were measured after two weeks. Tables 3A-3B are tables showing the concentrations of CN-Cbl (mg/ml) in various solutions after three days incubation at room temperature. Solutions containing 0-60% propylene glycol (Table 3A) and solutions containing 0-40% ethanol (Table 3B) were challenged with 50, 75, 100, and 125 mg/ml CN-Cbl. Table 4 is a table showing the concentrations of CN-Cbl in excipients containing ethanol and propylene glycol after two weeks incubation at room temperature. The solutions were challenged with either 50 or 75 mg/ml CN-Cbl and the excipients contained ethanol (10, 15, or 20%) and propylene glycol (20, 30, or 40%). […] Regardless of the diminution in concentration over time, however, it was hypothesized that the initial concentrations of CN-Cbl could be restored with an additional application of energy (e.g., mixing, heating, or both mixing and heating; see below).

[3] = Drug substance properties; conditions: 10 mg/ml aqueous solution
Experimental: Cyanocobalamin (CN-Cbl) is a cobalt containing vitamin and is reported to be sparingly soluble in water in the order of 1:80 or ˜12.5 mg/ml (Merck Index 1996). […] The material appears as dark red crystals or as an amorphous or crystalline red powder. It has a melting point of 300° C. and a molecular weight of 1355.38. The pH of a 10 mg/ml aqueous solution is 5.02.

cyanocobalamin [CN-Cbl]
CN-Cbl in solution over time ([1]; challenge 150 and 200 mg/ml, greater in 15% ethanol/20% PG than in 20% ethanol/40% PG): some precipitation
CN-Cbl in solution over time ([1]; first eight hours (held true over 200 hours), challenge 50, 75 and 100 mg/ml, 15% ethanol/20% PG and 20% ethanol/40% PG): remained in solution
Conc of CN-Cbl ([2]; challenge 50 mg/mL, ethanol 10%, PG 20% (v/v)): 26.68 mg/mL
Conc of CN-Cbl ([2]; challenge 50 mg/mL, ethanol 10%, PG 30% (v/v)): 39.46 mg/mL
Conc of CN-Cbl ([2]; challenge 50 mg/mL, ethanol 10%, PG 40% (v/v)): 50.65 mg/mL
Conc of CN-Cbl ([2]; challenge 50 mg/mL, ethanol 15%, PG 20% (v/v)): 48.72 mg/mL
Conc of CN-Cbl ([2]; challenge 50 mg/mL, ethanol 15%, PG 30% (v/v)): 49.78 mg/mL
Conc of CN-Cbl ([2]; challenge 50 mg/mL, ethanol 15%, PG 40% (v/v)): 49.39 mg/mL
Conc of CN-Cbl ([2]; challenge 50 mg/mL, ethanol 20%, PG 20% (v/v)): 47.08 mg/mL
Conc of CN-Cbl ([2]; challenge 50 mg/mL, ethanol 20%, PG 30% (v/v)): 49.78 mg/mL
Conc of CN-Cbl ([2]; challenge 50 mg/mL, ethanol 20%, PG 40% (v/v)): 49.87 mg/mL
Conc of CN-Cbl ([2]; challenge 75 mg/mL, ethanol 10%, PG 20% (v/v)): 26.91 mg/mL
Conc of CN-Cbl ([2]; challenge 75 mg/mL, ethanol 10%, PG 30% (v/v)): 35.21 mg/mL
Conc of CN-Cbl ([2]; challenge 75 mg/mL, ethanol 10%, PG 40% (v/v)): 55.66 mg/mL
Conc of CN-Cbl ([2]; challenge 75 mg/mL, ethanol 15%, PG 20% (v/v)): 33.28 mg/mL
Conc of CN-Cbl ([2]; challenge 75 mg/mL, ethanol 15%, PG 30% (v/v)): 43.31 mg/mL
Conc of CN-Cbl ([2]; challenge 75 mg/mL, ethanol 15%, PG 40% (v/v)): 74.28 mg/mL
Conc of CN-Cbl ([2]; challenge 75 mg/mL, ethanol 20%, PG 20% (v/v)): 38.39 mg/mL
Conc of CN-Cbl ([2]; challenge 75 mg/mL, ethanol 20%, PG 30% (v/v)): 59.62 mg/mL
Conc of CN-Cbl ([2]; challenge 75 mg/mL, ethanol 20%, PG 40% (v/v)): 75.82 mg/mL
concentration of CN-Cbl ([2]; After 3 days at Room Temperature, challenge 50 mg/ml, PG 0% v/v): 13.6 mg/mL
concentration of CN-Cbl ([2]; After 3 days at Room Temperature, challenge 50 mg/ml, PG 10% v/v): 19.5 mg/mL
concentration of CN-Cbl ([2]; After 3 days at Room Temperature, challenge 50 mg/ml, PG 20% v/v): 25.3 mg/mL
concentration of CN-Cbl ([2]; After 3 days at Room Temperature, challenge 50 mg/ml, PG 30% v/v): 31.0 mg/mL
concentration of CN-Cbl ([2]; After 3 days at Room Temperature, challenge 50 mg/ml, PG 40% v/v): 50.0 mg/mL
concentration of CN-Cbl ([2]; After 3 days at Room Temperature, challenge 50 mg/ml, PG 50% v/v): 49.9 mg/mL
concentration of CN-Cbl ([2]; After 3 days at Room Temperature, challenge 50 mg/ml, PG 60% v/v): 51.5 mg/mL
concentration of CN-Cbl ([2]; After 3 days at Room Temperature, challenge 75 mg/ml, PG 0% v/v): 15.0 mg/mL
concentration of CN-Cbl ([2]; After 3 days at Room Temperature, challenge 75 mg/ml, PG 10% v/v): 20.1 mg/mL
concentration of CN-Cbl ([2]; After 3 days at Room Temperature, challenge 75 mg/ml, PG 20% v/v): 25.8 mg/mL
concentration of CN-Cbl ([2]; After 3 days at Room Temperature, challenge 75 mg/ml, PG 30% v/v): 30.5 mg/mL
concentration of CN-Cbl ([2]; After 3 days at Room Temperature, challenge 75 mg/ml, PG 40% v/v): 40.5 mg/mL
concentration of CN-Cbl ([2]; After 3 days at Room Temperature, challenge 75 mg/ml, PG 50% v/v): 67.0 mg/mL
concentration of CN-Cbl ([2]; After 3 days at Room Temperature, challenge 75 mg/ml, PG 60% v/v): 75.8 mg/mL
concentration of CN-Cbl ([2]; After 3 days at Room Temperature, challenge 100 mg/ml, PG 0% v/v): 14.9 mg/mL
concentration of CN-Cbl ([2]; After 3 days at Room Temperature, challenge 100 mg/ml, PG 10% v/v): 19.5 mg/mL
concentration of CN-Cbl ([2]; After 3 days at Room Temperature, challenge 100 mg/ml, PG 20% v/v): 25.0 mg/mL
concentration of CN-Cbl ([2]; After 3 days at Room Temperature, challenge 100 mg/ml, PG 30% v/v): 28.8 mg/mL
concentration of CN-Cbl ([2]; After 3 days at Room Temperature, challenge 100 mg/ml, PG 40% v/v): 37.6 mg/mL
concentration of CN-Cbl ([2]; After 3 days at Room Temperature, challenge 100 mg/ml, PG 50% v/v): 55.9 mg/mL
concentration of CN-Cbl ([2]; After 3 days at Room Temperature, challenge 100 mg/ml, PG 60% v/v): 97.2 mg/mL
concentration of CN-Cbl ([2]; After 3 days at Room Temperature, challenge 125 mg/ml, PG 0% v/v): 14.5 mg/mL
concentration of CN-Cbl ([2]; After 3 days at Room Temperature, challenge 125 mg/ml, PG 10% v/v): 20.4 mg/mL
concentration of CN-Cbl ([2]; After 3 days at Room Temperature, challenge 125 mg/ml, PG 20% v/v): 23.1 mg/mL
concentration of CN-Cbl ([2]; After 3 days at Room Temperature, challenge 125 mg/ml, PG 30% v/v): 28.3 mg/mL
concentration of CN-Cbl ([2]; After 3 days at Room Temperature, challenge 125 mg/ml, PG 40% v/v): 38.6 mg/mL
concentration of CN-Cbl ([2]; After 3 days at Room Temperature, challenge 125 mg/ml, PG 50% v/v): 46.2 mg/mL
concentration of CN-Cbl ([2]; After 3 days at Room Temperature, challenge 125 mg/ml, PG 60% v/v): 78.7 mg/mL
concentration of CN-Cbl ([2]; after three days at room temperature, challenge 50 mg/ml, EtOH 0% v/v): 13.6 mg/mL
concentration of CN-Cbl ([2]; after three days at room temperature, challenge 50 mg/ml, EtOH 10% v/v): 20.5 mg/mL
concentration of CN-Cbl ([2]; after three days at room temperature, challenge 50 mg/ml, EtOH 20% v/v): 26.9 mg/mL
concentration of CN-Cbl ([2]; after three days at room temperature, challenge 50 mg/ml, EtOH 30% v/v): 40.0 mg/mL
concentration of CN-Cbl ([2]; after three days at room temperature, challenge 50 mg/ml, EtOH 40% v/v): 47.6 mg/mL
concentration of CN-Cbl ([2]; after three days at room temperature, challenge 75 mg/ml, EtOH 0% v/v): 15.0 mg/mL
concentration of CN-Cbl ([2]; after three days at room temperature, challenge 75 mg/ml, EtOH 10% v/v): 23.0 mg/mL
concentration of CN-Cbl ([2]; after three days at room temperature, challenge 75 mg/ml, EtOH 20% v/v): 26.1 mg/mL
concentration of CN-Cbl ([2]; after three days at room temperature, challenge 75 mg/ml, EtOH 30% v/v): 43.0 mg/mL
concentration of CN-Cbl ([2]; after three days at room temperature, challenge 75 mg/ml, EtOH 40% v/v): 53.4 mg/mL
concentration of CN-Cbl ([2]; after three days at room temperature, challenge 100 mg/ml, EtOH 0% v/v): 14.9 mg/mL
concentration of CN-Cbl ([2]; after three days at room temperature, challenge 100 mg/ml, EtOH 10% v/v): 24.0 mg/mL
concentration of CN-Cbl ([2]; after three days at room temperature, challenge 100 mg/ml, EtOH 20% v/v): 27.8 mg/mL
concentration of CN-Cbl ([2]; after three days at room temperature, challenge 100 mg/ml, EtOH 30% v/v): 34.5 mg/mL
concentration of CN-Cbl ([2]; after three days at room temperature, challenge 100 mg/ml, EtOH 40% v/v): 46.1 mg/mL
concentration of CN-Cbl ([2]; after three days at room temperature, challenge 125 mg/ml, EtOH 0% v/v): 14.5 mg/mL
concentration of CN-Cbl ([2]; after three days at room temperature, challenge 125 mg/ml, EtOH 10% v/v): 21.5 mg/mL
concentration of CN-Cbl ([2]; after three days at room temperature, challenge 125 mg/ml, EtOH 20% v/v): 28.4 mg/mL
concentration of CN-Cbl ([2]; after three days at room temperature, challenge 125 mg/ml, EtOH 30% v/v): 37.9 mg/mL
concentration of CN-Cbl ([2]; after three days at room temperature, challenge 125 mg/ml, EtOH 40% v/v): 50.9 mg/mL
pH of aqueous solution [3]: 5.02
